Values after ≈ are worked out from the molar mass of the structure shown.
Tests used:
[1] = test system: Listeria monocytogenes; test: Antimicrobial activity against Listeria monocytogenes ATCC 7644 after 18 to 24 hrs by microbroth dilution method; type: functional
[2] = test system: Pseudomonas aeruginosa; test: Antimicrobial activity against Pseudomonas aeruginosa […] after 18 to 24 hrs by microbroth dilution method; type: functional
[3] = test system: Escherichia coli; test: Antimicrobial activity against Escherichia coli ATCC 25922 after 18 to 24 hrs by microbroth dilution method; type: functional
[4] = test system: Staphylococcus aureus; test: Antimicrobial activity against Staphylococcus aureus NRRL B-767 after 18 to 24 hrs by microbroth dilution method; type: functional
[5] = test system: Bacillus subtilis; test: Antimicrobial activity against Bacillus subtilis NRS-744 after 18 to 24 hrs by microbroth dilution method; type: functional
[6] = test system: Micrococcus luteus; test: Antimicrobial activity against Micrococcus luteus NRLL B-4375 after 18 to 24 hrs by microbroth dilution method; type: functional
[7] = test system: Fusarium solani; test: Antimicrobial activity against Fusarium solani NRRL 13414 after 48 to 72 hrs by microbroth dilution method; type: functional
[8] = test system: Aspergillus ochraceus; test: Antimicrobial activity against Aspergillus ochraceus NRRL 3174 after 48 to 72 hrs by microbroth dilution method; type: functional
[9] = test system: NIH3T3; test: Cytotoxicity against mouse NIH/3T3 cells after 24 hrs by MTT assay; type: cell-based; conditions: NIH3T3, 24 h
[10] = test system: Fusarium culmorum; test: Antimicrobial activity against wild type Fusarium culmorum after 48 to 72 hrs by microbroth dilution method; type: functional
[11] = test system: Candida albicans; test: Antimicrobial activity against Candida albicans ATCC 22019 after 18 to 24 hrs by microbroth dilution method; type: functional
[12] = test system: Penicillium chrysogenum; test: Antimicrobial activity against Penicillium chrysogenum NRRL 1951 after 48 to 72 hrs by microbroth dilution method; type: functional
[13] = test system: Aspergillus parasiticus; test: Antimicrobial activity against Aspergillus parasiticus NRRL 465 after 48 to 72 hrs by microbroth dilution method; type: functional
[14] = test system: Fusarium verticillioides; test: Antimicrobial activity against Fusarium moniliforme NRRL 1866 after 48 to 72 hrs by microbroth dilution method; type: functional
[15] = test system: Trichoderma harzianum; test: Antimicrobial activity against Trichoderma harzianum NRRL 20565 after 48 to 72 hrs by microbroth dilution method; type: functional

SMILES	MIC [1] [µg/mL]	MIC [2] [µg/mL]	MIC [3] [µg/mL]	MIC [4] [µg/mL]	MIC [5] [µg/mL]	MIC [6] [µg/mL]	MIC [7] [µg/mL]	MIC [8] [µg/mL]	MIC [10] [µg/mL]	MIC [11] [µg/mL]	MIC [12] [µg/mL]	MIC [13] [µg/mL]	MIC [14] [µg/mL]	MIC [15] [µg/mL]	IC50 [9] [µg/mL]
CN[C@@H]1[C@H](O[C@H]2[C@H](O[C@H]3[C@H](O)[C@@H](O)[C@H](N=C(N)N)[C@@H](O)[C@@H]3N=C(N)N)O[C@@H](C)[C@]2(O)C=O)O[C@@H](CO)[C@H](O)[C@H]1O [STREPTOMYCIN]	7.81 (≈ 13.4 µM)	125 (≈ 215 µM)	31.2 (≈ 53.7 µM)	31.2 (≈ 53.7 µM)	15.6 (≈ 26.9 µM)	15.6 (≈ 26.9 µM)	–	–	–	–	–	–	–	–	–
COc1ccc(-c2cs/c(=N/NC(=O)CSc3nncn3C)n2-c2ccccc2)cc1	250 (≈ 552 µM)	250 (≈ 552 µM)	250 (≈ 552 µM)	250 (≈ 552 µM)	250 (≈ 552 µM)	250 (≈ 552 µM)	250 (≈ 552 µM)	250 (≈ 552 µM)	250 (≈ 552 µM)	250 (≈ 552 µM)	250 (≈ 552 µM)	250 (≈ 552 µM)	250 (≈ 552 µM)	250 (≈ 552 µM)	167 (≈ 368 µM)
Cn1cnnc1SCC(=O)N/N=c1/scc(-c2ccc([N+](=O)[O-])cc2)n1-c1ccccc1	250 (≈ 535 µM)	250 (≈ 535 µM)	250 (≈ 535 µM)	250 (≈ 535 µM)	125 (≈ 267 µM)	125 (≈ 267 µM)	250 (≈ 535 µM)	250 (≈ 535 µM)	250 (≈ 535 µM)	250 (≈ 535 µM)	250 (≈ 535 µM)	250 (≈ 535 µM)	250 (≈ 535 µM)	250 (≈ 535 µM)	133 (≈ 285 µM)
Cc1nnc(SCC(=O)N/N=c2/scc(-c3ccc([N+](=O)[O-])cc3)n2-c2ccccc2)s1	250 (≈ 516 µM)	250 (≈ 516 µM)	250 (≈ 516 µM)	500 (≈ 1030 µM)	250 (≈ 516 µM)	250 (≈ 516 µM)	250 (≈ 516 µM)	250 (≈ 516 µM)	250 (≈ 516 µM)	250 (≈ 516 µM)	250 (≈ 516 µM)	250 (≈ 516 µM)	250 (≈ 516 µM)	250 (≈ 516 µM)	177 (≈ 365 µM)
CC(=O)N1CCN(c2ccc(OCC3COC(Cn4ccnc4)(c4ccc(Cl)cc4Cl)O3)cc2)CC1 (centres undefined) [KETOCONAZOLE]	–	–	–	–	–	–	500 (≈ 941 µM)	250 (≈ 470 µM)	500 (≈ 941 µM)	250 (≈ 470 µM)	7.8 (≈ 14.7 µM)	125 (≈ 235 µM)	500 (≈ 941 µM)	250 (≈ 470 µM)	–
Cn1nnnc1SCC(=O)N/N=c1/scc(-c2ccc(Cl)cc2)n1-c1ccccc1	250 (≈ 546 µM)	250 (≈ 546 µM)	250 (≈ 546 µM)	500 (≈ 1090 µM)	250 (≈ 546 µM)	250 (≈ 546 µM)	250 (≈ 546 µM)	250 (≈ 546 µM)	250 (≈ 546 µM)	250 (≈ 546 µM)	250 (≈ 546 µM)	250 (≈ 546 µM)	250 (≈ 546 µM)	250 (≈ 546 µM)	40 (≈ 87.3 µM)
Cc1nnc(SCC(=O)N/N=c2/scc(-c3ccc(Br)cc3)n2-c2ccccc2)s1	250 (≈ 482 µM)	250 (≈ 482 µM)	250 (≈ 482 µM)	500 (≈ 964 µM)	500 (≈ 964 µM)	250 (≈ 482 µM)	250 (≈ 482 µM)	250 (≈ 482 µM)	250 (≈ 482 µM)	250 (≈ 482 µM)	250 (≈ 482 µM)	250 (≈ 482 µM)	250 (≈ 482 µM)	125 (≈ 241 µM)	55 (≈ 106 µM)
Cc1nnc(SCC(=O)N/N=c2/scc(-c3ccc(C#N)cc3)n2-c2ccccc2)s1	250 (≈ 538 µM)	250 (≈ 538 µM)	250 (≈ 538 µM)	250 (≈ 538 µM)	250 (≈ 538 µM)	250 (≈ 538 µM)	250 (≈ 538 µM)	250 (≈ 538 µM)	250 (≈ 538 µM)	250 (≈ 538 µM)	250 (≈ 538 µM)	250 (≈ 538 µM)	250 (≈ 538 µM)	125 (≈ 269 µM)	< 3.9
COc1ccc(-c2cs/c(=N/NC(=O)CSc3nnnn3C)n2-c2ccccc2)cc1	250 (≈ 551 µM)	250 (≈ 551 µM)	500 (≈ 1100 µM)	250 (≈ 551 µM)	250 (≈ 551 µM)	250 (≈ 551 µM)	250 (≈ 551 µM)	250 (≈ 551 µM)	250 (≈ 551 µM)	250 (≈ 551 µM)	250 (≈ 551 µM)	250 (≈ 551 µM)	250 (≈ 551 µM)	250 (≈ 551 µM)	45 (≈ 99.2 µM)

Second part, led by results:

MIC [1] [µg/mL]	MIC [2] [µg/mL]	MIC [3] [µg/mL]	MIC [4] [µg/mL]	MIC [5] [µg/mL]	MIC [6] [µg/mL]	MIC [7] [µg/mL]	MIC [8] [µg/mL]	MIC [10] [µg/mL]	MIC [11] [µg/mL]	MIC [12] [µg/mL]	MIC [13] [µg/mL]	MIC [14] [µg/mL]	MIC [15] [µg/mL]	SMILES	IC50 [9] [µg/mL]
250 (≈ 485 µM)	250 (≈ 485 µM)	250 (≈ 485 µM)	250 (≈ 485 µM)	500 (≈ 970 µM)	125 (≈ 242 µM)	250 (≈ 485 µM)	250 (≈ 485 µM)	125 (≈ 242 µM)	250 (≈ 485 µM)	250 (≈ 485 µM)	250 (≈ 485 µM)	250 (≈ 485 µM)	125 (≈ 242 µM)	COc1ccc(-c2cs/c(=N/NC(=O)CSc3nnnn3-c3ccccc3)n2-c2ccccc2)cc1	11.7 (≈ 22.7 µM)
250 (≈ 596 µM)	250 (≈ 596 µM)	250 (≈ 596 µM)	250 (≈ 596 µM)	500 (≈ 1190 µM)	250 (≈ 596 µM)	250 (≈ 596 µM)	250 (≈ 596 µM)	250 (≈ 596 µM)	250 (≈ 596 µM)	250 (≈ 596 µM)	250 (≈ 596 µM)	250 (≈ 596 µM)	250 (≈ 596 µM)	O=C(CSc1ncccn1)N/N=c1/scc(-c2ccccc2)n1-c1ccccc1	107 (≈ 254 µM)
250 (≈ 499 µM)	250 (≈ 499 µM)	250 (≈ 499 µM)	250 (≈ 499 µM)	250 (≈ 499 µM)	250 (≈ 499 µM)	250 (≈ 499 µM)	250 (≈ 499 µM)	250 (≈ 499 µM)	250 (≈ 499 µM)	250 (≈ 499 µM)	250 (≈ 499 µM)	250 (≈ 499 µM)	125 (≈ 249 µM)	Cn1cnnc1SCC(=O)N/N=c1/scc(-c2ccc(Br)cc2)n1-c1ccccc1	58.3 (≈ 116 µM)
250 (≈ 562 µM)	125 (≈ 281 µM)	250 (≈ 562 µM)	250 (≈ 562 µM)	250 (≈ 562 µM)	250 (≈ 562 µM)	250 (≈ 562 µM)	250 (≈ 562 µM)	250 (≈ 562 µM)	250 (≈ 562 µM)	250 (≈ 562 µM)	250 (≈ 562 µM)	250 (≈ 562 µM)	250 (≈ 562 µM)	N#Cc1ccc(-c2cs/c(=N/NC(=O)CSc3ncccn3)n2-c2ccccc2)cc1	< 3.9
125 (≈ 284 µM)	125 (≈ 284 µM)	125 (≈ 284 µM)	125 (≈ 284 µM)	250 (≈ 567 µM)	250 (≈ 567 µM)	250 (≈ 567 µM)	250 (≈ 567 µM)	250 (≈ 567 µM)	250 (≈ 567 µM)	250 (≈ 567 µM)	250 (≈ 567 µM)	250 (≈ 567 µM)	250 (≈ 567 µM)	Cn1cnnc1SCC(=O)N/N=c1/scc(-c2ccc(F)cc2)n1-c1ccccc1	65 (≈ 148 µM)
250 (≈ 547 µM)	250 (≈ 547 µM)	125 (≈ 274 µM)	125 (≈ 274 µM)	125 (≈ 274 µM)	125 (≈ 274 µM)	250 (≈ 547 µM)	250 (≈ 547 µM)	250 (≈ 547 µM)	250 (≈ 547 µM)	250 (≈ 547 µM)	250 (≈ 547 µM)	250 (≈ 547 µM)	125 (≈ 274 µM)	Cn1cnnc1SCC(=O)N/N=c1/scc(-c2ccc(Cl)cc2)n1-c1ccccc1	51.7 (≈ 113 µM)
250 (≈ 566 µM)	250 (≈ 566 µM)	125 (≈ 283 µM)	250 (≈ 566 µM)	250 (≈ 566 µM)	250 (≈ 566 µM)	250 (≈ 566 µM)	250 (≈ 566 µM)	250 (≈ 566 µM)	250 (≈ 566 µM)	250 (≈ 566 µM)	250 (≈ 566 µM)	250 (≈ 566 µM)	250 (≈ 566 µM)	Cn1nnnc1SCC(=O)N/N=c1/scc(-c2ccc(F)cc2)n1-c1ccccc1	113 (≈ 257 µM)
250 (≈ 538 µM)	250 (≈ 538 µM)	250 (≈ 538 µM)	250 (≈ 538 µM)	250 (≈ 538 µM)	250 (≈ 538 µM)	250 (≈ 538 µM)	250 (≈ 538 µM)	250 (≈ 538 µM)	250 (≈ 538 µM)	250 (≈ 538 µM)	250 (≈ 538 µM)	250 (≈ 538 µM)	250 (≈ 538 µM)	O=C(CSc1ncccn1)N/N=c1/scc(-c2ccc([N+](=O)[O-])cc2)n1-c1ccccc1	193 (≈ 416 µM)

Source: ChEMBL document CHEMBL3124777, “Synthesis and biological evaluation of thiazoline derivatives as new antimicrobial and anticancer agents” (Eur J Med Chem, 2014)
